From US20220168243A1 (priority 2020, published 2022)

Tests used:
SARS-CoV-2 = assay type: cell-based, SARS-CoV-2 (USA-WA1/2020)
[1] = tested on: coronaviruses (MERS; SARS-1; SARS-2); details: cited from earlier work
Vero E6 cells = experiment: Toxicity: CellTiter-Blue Cell Viability Assay

| SMILES | % Inhibition at HIGHEST Non-toxic Concentration (SARS-CoV-2) [%] | CoV Inhibition [1] | TOXICITY Y/N (Vero E6 cells) |
| --- | --- | --- | --- |
| OCCOc1ccc(/C(=C(/CCCl)c2ccccc2)c2ccccc2)cc1 [Ospemifene] | 45 |  |  |
| CN(C)CCCN1c2ccccc2Sc2ccc(Cl)cc21 [chlorpromazine] |  | SARS-2; |  |
| NC(=O)C(c1ccccc1)(c1ccccc1)[C@@H]1CCN(CCc2ccc3c(c2)CCO3)C1 [Darifenacin] | 45 |  |  |
| CC(CN1c2ccccc2Sc2ccccc21)N(C)C (stereo not shown) [promethazine] |  | MERS |  |
| CCN(CCCc1ccccc1)CCCc1ccccc1 [Alverine] | 30 |  |  |
| CC(C)NCC(O)COc1cccc2ccccc12 (stereo not shown) [propranolol, reference compound] |  | MERS; SARS-1 |  |
| Cc1cn(-c2cc(NC(=O)c3ccc(C)c(Nc4nccc(-c5cccnc5)n4)c3)cc(C(F)(F)F)c2)cn1 [Nilotinib] | 60 |  |  |
| CC(C)COCC(CN(Cc1ccccc1)c1ccccc1)N1CCCC1 (stereo not shown) [Bepridil, reference compound] | 60 |  |  |
| CN(C)CCCN1c2ccccc2CCc2ccc(Cl)cc21 [clomipramine] |  | MERS |  |
| OCCN1CCN(CCCN2c3ccccc3Sc3ccc(C(F)(F)F)cc32)CC1 [fluphenazine] |  | SARS-2; and MERS |  |
| CC(COc1ccccc1)N(CCCl)Cc1ccccc1 (stereo not shown) [Phenoxybenzamine] | 95 |  |  |
| CN(C)CCCN1c2ccccc2Sc2ccccc21 [Promazine, reference compound] | 70 | MERS; SARS-1 and MERS | Very weak |
| COc1cc2nc(N3CCN(C(=O)C4COc5ccccc5O4)CC3)nc(N)c2cc1OC (stereo not shown) [doxazosin, reference compound] |  | MERS; SARS-1 |  |
| CCN(CCO)CCCC(C)Nc1ccnc2cc(Cl)ccc12 (stereo not shown) [hydroxychloroquine] |  | SARS-2; and MERS |  |
| CC(C)N1CCN(c2ccc(OCC3COC(Cn4cncn4)(c4ccc(Cl)cc4Cl)O3)cc2)CC1 (stereo not shown) [terconazole, reference compound] |  | MERS; SARS-1 |  |
| CCN(CC)CCCC(C)Nc1ccnc2cc(Cl)ccc12 (stereo not shown) [chloroquine] |  | MERS |  |
| CCCCC1C(=O)N(c2ccccc2)N(c2ccccc2)C1=O [Phenylbutazone] | 90 |  |  |
| CCSc1ccc2c(c1)N(CCCN1CCN(C)CC1)c1ccccc1S2 [thiethylperazine] |  | SARS-2; and MERS |  |
| CCN(CC)Cc1cc(Nc2ccnc3cc(Cl)ccc23)ccc1O [amodiaquine] |  | SARS-2; and MERS |  |
| CNCCCN1c2ccccc2CCc2ccccc21 [Desipramine, reference compound] | 60 | MERS; SARS-1 and MERS | Very weak |
| C=CCc1ccccc1OCC(O)CNC(C)C (stereo not shown) [alprenolol] |  | MERS |  |
| Fc1ccc(C(c2ccc(F)cc2)N2CCN(C/C=C/c3ccccc3)CC2)cc1 [Flunarizine] | 80 |  |  |
| Cc1ccc(NC(=O)c2ccc(CN3CCN(C)CC3)cc2)cc1Nc1nc(-c2cccnc2)cs1 [Masitinib] | 90 |  |  |
| COc1c(C)c2c(c(O)c1C/C=C(\C)CCC(=O)OCCN1CCOCC1)C(=O)OC2 [mycophenolate_mofetil, reference compound] |  | MERS; SARS-1 |  |
